Test results taken from EP0550016A1, “Novel quinolone carboxylic acid derivatives and processes for preparing same” (KOREA RESEARCH INSTITUTE OF CHEMICAL TECHNOLOGY, priority 1991, dated 1993).
Read-outs that look alike come from different tables or passages of the source.

What was measured:
[1] = system: Pseudomonas aeruginosa 1592 E; experiment: In vitro anti-bacterial activity test (MIC, two-fold dilution method) against the standard strains; type: cell-based; details: Table 1 strain 13: Pseudomonas aeruginosa 1592 E
[2] = system: Staphylococcus aureus 711 E; experiment: In vitro anti-bacterial activity test (MIC, two-fold dilution method), Table 2 strains; type: cell-based
[3] = system: Pseudomonas aeruginosa 9027; experiment: In vitro anti-bacterial activity test (MIC, two-fold dilution method) against the standard strains; type: cell-based; details: Table 1 strain 12: Pseudomonas aeruginosa 9027
[4] = system: Staphylococcus aureus 725 E; experiment: In vitro anti-bacterial activity test (MIC, two-fold dilution method), Table 2 strains; type: cell-based
[5] = system: Escherichia coli DC 2; experiment: In vitro anti-bacterial activity test (MIC, two-fold dilution method) against the standard strains; type: cell-based; details: DC2; Table 1 strain 9: Escherichia coli DC 2; read-out: MIC
[6] = system: Staphylococcus aureus 693 E; experiment: In vitro anti-bacterial activity test (MIC, two-fold dilution method), Table 2 strains; type: cell-based
[7] = system: Klebsiella aerogenes 1082 E; experiment: In vitro anti-bacterial activity test (MIC, two-fold dilution method) against the standard strains; type: cell-based; details: Table 1 strain 17: Klebsiella aerogenes 1082 E
[8] = system: Enterobacter cloacae P 99; experiment: as above; type: cell-based; details: P99; Table 1 strain 19: Enterobacter cloacae P 99
[9] = system: Staphylococcus aureus 121 E; experiment: In vitro anti-bacterial activity test (MIC, two-fold dilution method), Table 2 strains; type: cell-based
[10] = system: Streptococcus pyogenes 77 A; experiment: In vitro anti-bacterial activity test (MIC, two-fold dilution method) against the standard strains; type: cell-based
[11] = system: Staphylococcus aureus 703 E; experiment: In vitro anti-bacterial activity test (MIC, two-fold dilution method), Table 2 strains; type: cell-based
[12] = system: Staphylococcus aureus 705 E; experiment: as above; type: cell-based
[13] = system: Staphylococcus aureus 714 E; experiment: as above; type: cell-based
[14] = system: Salmonella typhimurium; experiment: In vitro anti-bacterial activity test (MIC, two-fold dilution method) against the standard strains; type: cell-based; details: Salmonella enterica; Table 1 strain 16: Salmonella typhimurium
[15] = system: Staphylococcus aureus 690 E; experiment: In vitro anti-bacterial activity test (MIC, two-fold dilution method), Table 2 strains; type: cell-based
[16] = system: Staphylococcus aureus 697 E; experiment: as above; type: cell-based; details: Table 2 strain 10: Staphylococcus aureus 697 E
[17] = system: Staphylococcus aureus 708 E; experiment: as above; type: cell-based; details: Table 2 strain 16: Staphylococcus aureus 708 E
[18] = system: Staphylococcus aureus 88 E; experiment: as above; type: cell-based; details: Table 2 strain 1: Staphylococcus aureus 88 E
[19] = system: Staphylococcus aureus 256 E; experiment: as above; type: cell-based; details: Table 2 strain 4: Staphylococcus aureus 256 E
[20] = system: Staphylococcus aureus 695 E; experiment: as above; type: cell-based
[21] = system: Escherichia coli 1507 E; experiment: In vitro anti-bacterial activity test (MIC, two-fold dilution method) against the standard strains; type: cell-based; details: Table 1 strain 11: Escherichia coli 1507 E
[22] = system: Staphylococcus aureus 285; experiment: as above; type: cell-based
[23] = system: Pseudomonas aeruginosa 1771; experiment: as above; type: cell-based; details: Table 1 strain 14: Pseudomonas aeruginosa 1771
[24] = system: Staphylococcus aureus SG 511; experiment: as above; type: cell-based; details: SG511; Table 1 strain 4: Staphylococcus aureus SG 511
[25] = system: Klebsiella aerogenes 1522 E; experiment: as above; type: cell-based; details: Table 1 strain 18: Klebsiella aerogenes 1522 E
[26] = system: Staphylococcus aureus 706 E; experiment: In vitro anti-bacterial activity test (MIC, two-fold dilution method), Table 2 strains; type: cell-based
[27] = system: Streptococcus faecium MD 8b; experiment: In vitro anti-bacterial activity test (MIC, two-fold dilution method) against the standard strains; type: cell-based; details: Enterococcus faecium, MD8B
[28] = system: Escherichia coli DC 0; experiment: as above; type: cell-based; details: DC0; Table 1 strain 7: Escherichia coli DC 0
[29] = system: Escherichia coli OTEM; experiment: as above; type: cell-based; details: Table 1 strain 10: Escherichia coli OTEM
[30] = system: Staphylococcus aureus 701 E; experiment: In vitro anti-bacterial activity test (MIC, two-fold dilution method), Table 2 strains; type: cell-based
[31] = system: Staphylococcus aureus 503; experiment: In vitro anti-bacterial activity test (MIC, two-fold dilution method) against the standard strains; type: cell-based
[32] = system: Staphylococcus aureus 707 E; experiment: In vitro anti-bacterial activity test (MIC, two-fold dilution method), Table 2 strains; type: cell-based
[33] = system: Staphylococcus aureus 694 E; experiment: as above; type: cell-based
[34] = system: Staphylococcus aureus 692 E; experiment: as above; type: cell-based; details: Table 2 strain 6: Staphylococcus aureus 692 E
[35] = system: Streptococcus pyogenes 308 A; experiment: In vitro anti-bacterial activity test (MIC, two-fold dilution method) against the standard strains; type: cell-based; details: Table 1 strain 1: Streptococcus pyogenes 308 A
[36] = system: Pseudomonas aeruginosa 1771 M; experiment: as above; type: cell-based; details: Table 1 strain 15: Pseudomonas aeruginosa 1771 M
[37] = system: Escherichia coli DC 0; experiment: as above; type: cell-based; details: DC0; Table 1 strain 8: Escherichia coli DC 0
[38] = system: Staphylococcus aureus 208 E; experiment: In vitro anti-bacterial activity test (MIC, two-fold dilution method), Table 2 strains; type: cell-based
[39] = system: Enterobacter cloacae 1321 E; experiment: In vitro anti-bacterial activity test (MIC, two-fold dilution method) against the standard strains; type: cell-based; details: Table 1 strain 20: Enterobacter cloacae 1321 E
[40] = system: S. aureus 17740; experiment: Preventive effect against the systemic infection; type: in vivo; details: Staphylococcus aureus, 168 h, Oral Administration, NMRI mice, survival on day 7, read-out: ED₅₀
Procedure: (§1) 10 fold of the pathogen which leads to 100% lethality were injected intraperitoneally to male and female NMRI mice weighing 18 to 20g. Immediately and after 4 hours, the dose of test compounds which was determined by two-fold serial dilution method was administered orally or subcutaneously; and on day 7, the effectiveness was evaluated in terms of ED₅₀ calculated from the number of survived mice by the probit analysis.

[41] = system: P. mirabilis; experiment: Preventive effect against the systemic infection; type: in vivo; details: Proteus mirabilis, 168 h, NMRI mice, survival on day 7, read-out: ED₅₀
Procedure: as §1

CNC1CC12CCN(c1c(F)cc3c(=O)c(C(=O)O)cn(C4CC4)c3c1F)C2 (centres unmarked) [Example 8, 7-(1-methylamino-5-azaspiro[2,4]heptane-5-yl)-1-cyclopropyl-6,8-difluoro-1,4-dihydro-4-oxo-quinoline-3-carboxylic acid]
0.049 µg/mL: MIC ([2]; Table 2 strain 17: Staphylococcus aureus 711 E, read-out: MIC) | MIC ([6]; Table 2 strain 7: Staphylococcus aureus 693 E, read-out: MIC) | MIC [8] | MIC ([13]; Table 2 strain 18: Staphylococcus aureus 714 E, read-out: MIC) | MIC [14] | MIC ([15]; Table 2 strain 5: Staphylococcus aureus 690 E, read-out: MIC) | MIC [16] | MIC [17] | MIC ([20]; Table 2 strain 9: Staphylococcus aureus 695 E, read-out: MIC) | MIC [21] | MIC ([22]; Table 1 strain 5: Staphylococcus aureus 285, read-out: MIC) | MIC [24] | MIC [29] | MIC ([31]; Table 1 strain 6: Staphylococcus aureus 503, read-out: MIC) | MIC [34]
1.56 µg/mL: MIC [1] | MIC [3] | MIC [23]
0.004 µg/mL: MIC [7]
0.025 µg/mL: MIC [39]
0.013 µg/mL: MIC [28]
0.391 µg/mL: MIC ([33]; Table 2 strain 8: Staphylococcus aureus 694 E, read-out: MIC) | MIC [35] | MIC [36] | MIC [37]
0.098 µg/mL: MIC ([4]; Table 2 strain 19: Staphylococcus aureus 725 E, read-out: MIC) | MIC [5] | MIC ([9]; Table 2 strain 2: Staphylococcus aureus 121 E, read-out: MIC) | MIC [18] | MIC [25] | MIC ([26]; Table 2 strain 14: Staphylococcus aureus 706 E, read-out: MIC) | MIC ([38]; Table 2 strain 3: Staphylococcus aureus 208 E, read-out: MIC)
0.195 µg/mL: MIC ([10]; Table 1 strain 2: Streptococcus pyogenes 77 A, read-out: MIC) | MIC ([11]; Table 2 strain 12: Staphylococcus aureus 703 E, read-out: MIC) | MIC ([12]; Table 2 strain 13: Staphylococcus aureus 705 E, read-out: MIC) | MIC [19] | MIC ([27]; Table 1 strain 3: Streptococcus faecium MD 8b, read-out: MIC) | MIC ([30]; Table 2 strain 11: Staphylococcus aureus 701 E, read-out: MIC) | MIC ([32]; Table 2 strain 15: Staphylococcus aureus 707 E, read-out: MIC)

O=C(O)c1cn(C2CC2)c2cc(N3CCNCC3)c(F)cc2c1=O [Ciprofloxacin, ciprofloxacin, reference compound]
0.098 µg/mL: MIC [36]
0.16 mg/kg: ED50 ([41]; sc, Subcutaneous Injection)
0.195 µg/mL: MIC [5] | MIC [17] | MIC [24]
0.391 µg/mL: MIC [1] | MIC [3] | MIC [16] | MIC [23] | MIC [34] | MIC [37]
0.82 mg/kg: ED50 ([41]; Oral Administration)
0.002 µg/mL: MIC [28]
3.12 µg/mL: MIC [35]
1.56 µg/mL: MIC [18] | MIC [19]
> 200 mg/kg: ED50 [40]
0.781 µg/mL: MIC ([2]; Staphylococcus aureus, 711E) | MIC ([4]; Staphylococcus aureus, 725E) | MIC ([6]; Staphylococcus aureus, 693E) | MIC ([9]; Staphylococcus aureus, 121E) | MIC ([10]; Streptococcus pyogenes, 77A) | MIC ([11]; Staphylococcus aureus, 703E) | MIC ([12]; Staphylococcus aureus, 705E) | MIC ([13]; Staphylococcus aureus, 714E) | MIC ([15]; Staphylococcus aureus, 690E) | MIC ([20]; Staphylococcus aureus, 695E) | MIC ([22]; Staphylococcus aureus, 285) | MIC ([26]; Staphylococcus aureus, 706E) | MIC [27] | MIC ([30]; Staphylococcus aureus, 701E) | MIC ([31]; Staphylococcus aureus, 503) | MIC ([32]; Staphylococcus aureus, 707E) | MIC ([33]; Staphylococcus aureus, 694E) | MIC ([38]; Staphylococcus aureus, 208E)
0.007 µg/mL: MIC [7] | MIC [21] | MIC [29]
